From ChEMBL document CHEMBL4266030, “Molecular Basis for Multiple Omapatrilat Binding Sites within the ACE C-Domain: Implications for Drug Design” (J Med Chem, 2018)

Experiments:
[1] = target: T1, Angiotensin-converting enzyme (Homo sapiens, UniProt P12821); assay: Inhibition of human fully glycosylated ACE C-terminal domain expressed in CHO cells using Cbz-Phe-His-Leu as substrate preincubated for 15 mins followed by substrate addition measured after 10 mins by fluorescence spectrophotometric analysis
T1 sequence (P12821 whole entry, the tested form may be a part): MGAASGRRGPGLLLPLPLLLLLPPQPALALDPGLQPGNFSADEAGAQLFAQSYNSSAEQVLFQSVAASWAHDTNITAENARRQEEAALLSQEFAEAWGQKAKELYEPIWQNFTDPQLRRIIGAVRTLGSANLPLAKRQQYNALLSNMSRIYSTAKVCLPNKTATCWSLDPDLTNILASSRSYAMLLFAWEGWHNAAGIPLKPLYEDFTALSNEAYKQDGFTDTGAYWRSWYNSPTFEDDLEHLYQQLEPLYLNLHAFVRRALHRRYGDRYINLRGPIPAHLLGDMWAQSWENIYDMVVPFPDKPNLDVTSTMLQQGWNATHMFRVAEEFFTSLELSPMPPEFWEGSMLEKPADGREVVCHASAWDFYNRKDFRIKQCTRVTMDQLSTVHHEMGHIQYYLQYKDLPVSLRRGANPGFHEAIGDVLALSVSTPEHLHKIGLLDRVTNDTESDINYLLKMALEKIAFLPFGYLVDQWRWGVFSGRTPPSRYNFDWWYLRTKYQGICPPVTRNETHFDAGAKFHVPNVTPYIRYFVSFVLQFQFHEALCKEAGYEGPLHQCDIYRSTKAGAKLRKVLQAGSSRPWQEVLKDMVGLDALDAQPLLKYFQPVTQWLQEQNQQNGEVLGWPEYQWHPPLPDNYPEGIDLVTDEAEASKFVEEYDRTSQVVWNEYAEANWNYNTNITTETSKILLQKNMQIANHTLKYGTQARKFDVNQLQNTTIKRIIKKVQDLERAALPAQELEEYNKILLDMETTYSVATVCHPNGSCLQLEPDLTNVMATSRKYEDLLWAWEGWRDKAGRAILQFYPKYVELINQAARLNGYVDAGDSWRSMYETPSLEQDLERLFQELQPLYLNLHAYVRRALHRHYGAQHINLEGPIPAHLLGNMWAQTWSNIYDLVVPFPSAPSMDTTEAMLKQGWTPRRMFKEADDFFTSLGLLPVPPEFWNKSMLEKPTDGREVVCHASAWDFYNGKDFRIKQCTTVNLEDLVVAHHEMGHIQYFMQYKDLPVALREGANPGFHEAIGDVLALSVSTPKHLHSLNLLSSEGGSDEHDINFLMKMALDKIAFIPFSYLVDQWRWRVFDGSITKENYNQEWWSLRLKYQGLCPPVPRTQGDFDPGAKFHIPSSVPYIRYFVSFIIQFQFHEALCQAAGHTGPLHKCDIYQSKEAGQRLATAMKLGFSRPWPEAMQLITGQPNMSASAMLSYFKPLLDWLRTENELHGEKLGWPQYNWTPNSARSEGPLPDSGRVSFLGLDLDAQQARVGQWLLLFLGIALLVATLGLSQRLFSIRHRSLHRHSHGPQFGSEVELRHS

[2] = target: T1, Angiotensin-converting enzyme; assay: Inhibition of human fully glycosylated ACE N-terminal domain expressed in CHO cells using Cbz-Phe-His-Leu as substrate preincubated for 15 mins followed by substrate addition measured after 10 mins by fluorescence spectrophotometric analysis
[3] = target: T1, Angiotensin-converting enzyme; assay: Inhibition of human fully glycosylated ACE C-terminal domain expressed in CHO cells using MCA-RPPGFSAFK(Dnp)-OH as substrate preincubated for 15 mins followed by substrate addition measured after 10 mins by fluorescence spectrophotometric analysis
[4] = target: T1, Angiotensin-converting enzyme; assay: Inhibition of human fully glycosylated ACE N-terminal domain expressed in CHO cells using MCA-RPPGFSAFK(Dnp)-OH as substrate preincubated for 15 mins followed by substrate addition measured after 10 mins by fluorescence spectrophotometric analysis
[5] = target: T1, Angiotensin-converting enzyme; assay: Inhibition of human fully glycosylated ACE N-terminal domain expressed in CHO cells using Cbz-Phe-His-Leu as substrate preincubated for 15 mins followed by substrate addition measured after 10 mins by Morrison's plot analysis
[6] = target: T1, Angiotensin-converting enzyme; assay: Inhibition of human fully glycosylated ACE C-terminal domain expressed in CHO cells using Cbz-Phe-His-Leu as substrate preincubated for 15 mins followed by substrate addition measured after 10 mins by Morrison's plot analysis

Row | IC50 [1] [nM] | IC50 [2] [nM] | IC50 [3] [nM] | IC50 [4] [nM] | Ki [5] [nM] | Ki [6] [nM] | Compound
1 | 2800 | 2200 | 1800 | 2100 |  |  | O=C(N[C@H]1CCS[C@H]2CCC[C@@H](C(=O)O)N2C1=O)[C@H](Cc1ccccc1)SS[C@@H](Cc1ccccc1)C(=O)N[C@H]1CCS[C@H]2CCC[C@@H](C(=O)O)N2C1=O
2 |  |  |  |  | 0.015 | 0.016 | O=C(N[C@H]1CCS[C@H]2CCC[C@@H](C(=O)O)N2C1=O)[C@@H](S)Cc1ccccc1 [OMAPATRILAT]
